Laboratory results published in PubChem BioAssay AID1902 (Broad Institute, 2009).
Calls of active or inactive are those of the source.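 How the source made its calls: active means EC50 no more than a set limit of log units above the highest dose; inactive means the rest.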

Each compound was assayed against S. pyogenes SKKanGAS, kanamycin survival, BacTiterGlo, 6 h (assay: S. pyogenes SKKanGAS kanamycin growth inhibitors – SKKanGAS strain, luminescence, dose confirmation, streptokinase promoter inhibitor project, dose response (AID 1902);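 further: lower survival reflects blocked streptokinase promoter driving kanamycin resistance gene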).

Row | Structure (SMILES) | EC50
1 | COC(=O)c1nc(NC(=S)NC(=O)c2cccs2)sc1C | 12.7 µM
2 | CC(C)c1ccc(NC(=O)c2cc(S(=O)(=O)NCC3COc4ccccc4O3)ccc2F)cc1 (centres undefined) | 5.37 µM
3 | CCOC(=O)c1csc(NC(=O)c2ccc3c(c2)OCCO3)n1 | > 15 µM (inactive)
4 | CCCCn1c(=O)c(C(=O)NCc2ccccc2)c(O)c2ccccc21 | 6.85 µM
5 | Cc1ccsc1C(=O)N(c1nc2ccccc2s1)c1c(C)cccc1C | 4 µM
6 | COc1cc([N+](=O)[O-])cc(/C=N\NC(=O)C2COc3ccccc3O2)c1O (centres undefined) | 3.61 µM
7 | O=C(NNC1=Nc2ccccc2SC1)c1ccc(F)cc1 | 6.87 µM
8 | Cc1[nH]n(-c2ccc(Br)cc2)c(=O)c1/C=N/NC(=O)c1ccccc1 | 0.428 µM
9 | COc1ccc(N(CC(=O)NCCSCc2cccc(Cl)c2)S(C)(=O)=O)cc1Cl | 4.72 µM
10 | CC(C)C(=O)NC(c1cccs1)c1cc([N+](=O)[O-])c2cccnc2c1O (centres undefined) | 1.45 µM
11 | CCCOC(=O)c1ccc(Oc2c(-c3ccc(OCC)cc3O)n[nH]c2C)cc1 | 2.02 µM
12 | Cc1ccc2sc(NNC(=O)c3ccc4c(c3)OCCO4)nc2c1C | 3.79 µM
13 | Cc1cc(C)c[n+](C2=C([O-])c3ccccc3C(=O)/C2=N\S(=O)(=O)c2cccs2)c1 | 1.85 µM
14 | O=C(Nc1ccc2c(c1)CCC2)c1cc(S(=O)(=O)Nc2ccc(F)cc2)c(Cl)cc1Cl | 4.04 µM
15 | C=CCN1C(=O)/C(=C/c2ccc(OC(C)=O)c(OCC)c2[N+](=O)[O-])SC1=S | 1.62 µM
16 | Cc1cc(C)n(-c2nc(SCC(=O)O)c3c4c(sc3n2)COC(C)(C)C4)n1 | 4.31 µM
17 | COc1cccc(NC(=O)Nc2nc(SC(C)(C)C)ns2)c1 | 8.16 µM
18 | O=[N+]([O-])c1ccc(/C=N/NC(=S)Nc2ccc(Cl)cc2Cl)s1 | 1.75 µM
19 | O=C1C=C(N2CCCCC2)c2ccccc2C1=O | 3.67 µM
20 | Cc1cc(C)c(OCC(=O)Nc2nc(-c3ccccn3)cs2)c(C)c1 | 1.4 µM
21 | CCCCCc1ccc(OCCOCCn2c[n+](C)c3ccccc32)c(CCCCC)c1 | 5.79 µM
22 | CCOC(=O)c1ccc(-c2ccc3c(=O)c4ccccc4n(C)c3c2)cc1F | 4.15 µM
23 | CC(Oc1ccc(Cl)cc1Cl)c1nc(-c2ccc(NC(=O)c3ccco3)cc2)no1 (centres undefined) | 5.82 µM
24 | CCC(CC)c1nnc(NC(=O)c2ccc3ccccc3n2)s1 | 0.72 µM
25 | O=C(/C=C/c1ccccc1)NC(=S)NNC(=O)c1ccco1 | 2.76 µM
26 | O=[N+]([O-])c1c(NCCCO)cc(Sc2nc3ccccc3s2)c2nonc12 | 2 µM
27 | COc1cc(C(=O)N/N=C/c2ccc(OC(=O)c3ccccc3Cl)c(OC)c2)ccc1O | 5.64 µM

Row | Structure (SMILES) | EC50
28 | COc1ccc(-c2sc3ccccc3c2C#CC2(O)CCCCC2)cc1 | 4.58 µM
29 | Cc1ccc(NC(=S)NNC(=S)Nc2cccc(C(F)(F)F)c2)cc1 | 2.04 µM
30 | CCC(Oc1ccccc1)C(=O)Nc1ccccc1N1CCCCC1 (centres undefined) | 3.3 µM
31 | COc1ccc(-c2nc(NC(=O)C3CC(=O)N(c4ccc5c(c4)OCCO5)C3)sc2C)cc1 (centres undefined) | 12 µM
32 | Cc1c(CCOC(=O)C2C3CC4CC(C3)CC2C4)sc[n+]1CC(=O)c1ccc(Br)cc1 (centres undefined) | 7.28 µM
33 | O=C(NCc1nnc(SCC(=O)N2CCOCC2)o1)c1c(F)cccc1F | > 15 µM (inactive)
34 | Oc1[nH]c2ccccc2c1N=NC(=S)N1CCOCC1 | 0.273 µM
35 | O=C(COc1ccccc1)NC1C(=O)N2C(C(=O)O)=C(Cl)CSC12 (centres undefined) | 0.128 µM
36 | Oc1cccc2ccc(/C=C/c3ccccc3Cl)nc12 | 0.248 µM
37 | CC(C)C(=O)Nc1ccc(C(=O)N/N=C/c2cc(Br)cc(Br)c2O)cc1 | 1.36 µM
38 | O=C(Nc1nnc(C2CC2)s1)c1cc(-c2ccccc2)nn1-c1ccccc1 | 6.47 µM
39 | COc1ccc(/C=C/C(=O)NC(=S)N2CCN(c3ccccc3OC)CC2)cc1 | > 15 µM (inactive)
40 | Cc1ccc2ccc(C(Nc3ccccn3)c3ccccc3)c(O)c2n1 (centres undefined) | 0.705 µM
41 | Cc1cccc2sc(NNC(=O)c3ccc(S(=O)(=O)N4CC(C)CC(C)C4)cc3)nc12 (centres undefined) | 0.212 µM
42 | CCCC(=O)NCCc1ccc(F)cc1 | > 15 µM (inactive)
43 | Cc1cc(C)c(-c2cc(NC(=O)COC(=O)c3ccc(CO)cc3)n(-c3ccccc3)n2)cc1C | 8.32 µM
44 | CC12CCC(C/C1=N\N=C1\NC(=O)/C(=C\c3cccc(Br)c3)S1)C2(C)C (centres undefined) | 0.638 µM
45 | CCCOC(=O)c1ccc(Oc2c(-c3ccc(OC)cc3O)n[nH]c2C)cc1 | 13.5 µM
46 | O=C1CN(/N=C/c2ccc([N+](=O)[O-])o2)C(=O)N1 | 5.83 µM
47 | CCc1ccc2[nH]c(=O)c(C3C(C#N)=C(N)Oc4c3ccc3cccnc43)cc2c1 (centres undefined) | 1.63 µM
48 | O=c1c(O)c(-c2cccs2)oc2ccccc12 | 3.94 µM
49 | c1ccc(N2CCN(c3nc(-c4ccccn4)nc4ccccc34)CC2)cc1 | < 0.06 µM
50 | C=C(CC1([C@@H](NP(=O)(c2ccccc2)c2ccccc2)[C@H]2C[C@@H]2CCCC)CC1)c1ccccc1 | 3.64 µM
51 | Cc1ccc(OCC(=O)Nc2nc(-c3ccccn3)cs2)c(C)c1 | 1.99 µM
52 | CCc1nnc(NC(=O)c2ccc(S(=O)(=O)N(C)c3ccccc3)cc2)o1 | 4.71 µM
53 | CCOC(=O)c1ccc(Nc2nc(C)nc3c2nnn3Cc2ccccc2)cc1 | 6.69 µM
54 | OC1(C#Cc2c(-c3ccsc3)oc3ccc(N4CCOCC4)cc23)CCCCC1 | 3.59 µM
